Measurements from PubChem BioAssay AID1259407 (Chemical Carcinogenesis Research Information System (CCRIS), 2018).
Active and inactive are the calls of the source. The rule behind the calls is not given here.

System: CCRIS mutagenicity, Ames/micronucleus/aberration tests
Assay: CCRIS mutagenicity studies
Conditions: Test System: AMES SALMONELLA TYPHIMURIUM
[1] = Strain/Indicator: TA98, Metabolic Activation: NONE, Method: PREINCUBATION
[2] = Strain/Indicator: TA100, Metabolic Activation: NONE, Method: PREINCUBATION

CCN(CC)c1ccc(N=O)c(O)c1
mutagenic call (Strain/Indicator: TA97, Metabolic Activation: HAMSTER, LIVER, S-9, AROCLOR 1254 (10%), Method: PREINCUBATION): inactive; negative | mutagenic call (Strain/Indicator: TA97, Metabolic Activation: HAMSTER, LIVER, S-9, AROCLOR 1254 (30%), Method: PREINCUBATION): inactive; negative | mutagenic call (Strain/Indicator: TA97, Metabolic Activation: NONE, Method: PREINCUBATION): inactive; negative | mutagenic call (Strain/Indicator: TA97, Metabolic Activation: RAT, LIVER, S-9, AROCLOR 1254 (10%), Method: PREINCUBATION): inactive; negative | mutagenic call (Strain/Indicator: TA97, Metabolic Activation: RAT, LIVER, S-9, AROCLOR 1254 (30%), Method: PREINCUBATION): inactive; negative | mutagenic call (Strain/Indicator: TA98, Metabolic Activation: HAMSTER, LIVER, S-9, AROCLOR 1254 (5 OR 10%), Method: PREINCUBATION): inactive; negative | mutagenic call (Strain/Indicator: TA98, Metabolic Activation: HAMSTER, LIVER, S-9, AROCLOR 1254 (30%), Method: PREINCUBATION): inactive; negative | mutagenic call [1]: inactive; negative | mutagenic call (Strain/Indicator: TA98, Metabolic Activation: RAT, LIVER, S-9, AROCLOR 1254 (5 OR 10%), Method: PREINCUBATION): inactive; negative | mutagenic call (Strain/Indicator: TA98, Metabolic Activation: RAT, LIVER, S-9, AROCLOR 1254 (30%), Method: PREINCUBATION): inactive; negative | mutagenic call (Strain/Indicator: TA100, Metabolic Activation: HAMSTER, LIVER, S-9, AROCLOR 1254 (10%), Method: PREINCUBATION): inactive; negative | mutagenic call (Strain/Indicator: TA100, Metabolic Activation: HAMSTER, LIVER, S-9, AROCLOR 1254 (30%), Method: PREINCUBATION): inactive; negative | mutagenic call [2]: inactive; negative | mutagenic call (Strain/Indicator: TA100, Metabolic Activation: RAT, LIVER, S-9, AROCLOR 1254 (10%), Method: PREINCUBATION): inactive; negative | mutagenic call (Strain/Indicator: TA100, Metabolic Activation: RAT, LIVER, S-9, AROCLOR 1254 (30%), Method: PREINCUBATION): inactive; negative | mutagenic call (Strain/Indicator: TA1535, Metabolic Activation: HAMSTER, LIVER, S-9, AROCLOR 1254 (10%), Method: PREINCUBATION): inactive; negative | mutagenic call (Strain/Indicator: TA1535, Metabolic Activation: HAMSTER, LIVER, S-9, AROCLOR 1254 (30%), Method: PREINCUBATION): inactive; negative | mutagenic call (Strain/Indicator: TA1535, Metabolic Activation: NONE, Method: PREINCUBATION): inactive; negative | mutagenic call (Strain/Indicator: TA1535, Metabolic Activation: RAT, LIVER, S-9, AROCLOR 1254 (10%), Method: PREINCUBATION): inactive; negative | mutagenic call (Strain/Indicator: TA1535, Metabolic Activation: RAT, LIVER, S-9, AROCLOR 1254 (30%), Method: PREINCUBATION): inactive; negative | mutagenic call (Strain/Indicator: TA1537, Metabolic Activation: HAMSTER, LIVER, S-9, AROCLOR 1254 (30%), Method: PREINCUBATION): inactive; negative | mutagenic call (Strain/Indicator: TA1537, Metabolic Activation: NONE, Method: PREINCUBATION): inactive; negative | mutagenic call (Strain/Indicator: TA1537, Metabolic Activation: RAT, LIVER, S-9, AROCLOR 1254 (30%), Method: PREINCUBATION): inactive; negative | mutagenic call (Strain/Indicator: TA1538, Metabolic Activation: HAMSTER, LIVER, S-9, AROCLOR 1254 (10%), Method: PREINCUBATION): inactive; negative | mutagenic call (Strain/Indicator: TA1538, Metabolic Activation: HAMSTER, LIVER, S-9, AROCLOR 1254 (30%), Method: PREINCUBATION): inactive; negative | mutagenic call (Strain/Indicator: TA1538, Metabolic Activation: NONE, Method: PREINCUBATION): inactive; negative | mutagenic call (Strain/Indicator: TA1538, Metabolic Activation: RAT, LIVER, S-9, AROCLOR 1254 (10 OR 30%), Method: PREINCUBATION): inactive; negative

CC(=O)OC1Cc2c(C)ccc3cc4c(ccc5ccccc54)c1c23 (stereo not drawn)
mutagenic call (Strain/Indicator: TA98, Metabolic Activation: NONE, Method: STANDARD PLATE): active; positive | mutagenic call (Strain/Indicator: TA100, Metabolic Activation: NONE, Method: STANDARD PLATE): active; positive

COc1c(O)cc2oc(-c3ccc(O)cc3)cc(=O)c2c1O
mutagenic call [1]: inactive; negative | mutagenic call (Strain/Indicator: TA98, Metabolic Activation: RAT LIVER S-9, SODIUM BARBITAL AND BETA-NAPHTHAFLAVONE, Method: PREINCUBATION): inactive; negative | mutagenic call [2]: inactive; negative | mutagenic call (Strain/Indicator: TA100, Metabolic Activation: RAT LIVER S-9, SODIUM BARBITAL AND BETA-NAPHTHAFLAVONE, Method: PREINCUBATION): inactive; negative
